Test results: patent US11242335B2, “Fluorine-substituted indazole compounds and uses thereof” (SUNSHINE LAKE PHARMA CO., LTD., priority 2017, dated 2022)

Target: T1, hERG potassium channel (Homo sapiens, UniProt Q12809)
T1 construct: expressed in transfected cells; host or cells: HEK293
Experiment: Inhibition of hERG potassium channel, manual patch clamp in HEK293 cells
Type: cell-based
Conditions: hERG tail current; HEK293 cells overexpressing hERG; whole cell patch clamp; 22-24° C.
Protocol: Each compound was weighed and dissolved in DMSO and diluted with DMSO to a serial solution (30, 10, 3.3, 1.1, 0.37 mM). The above serial solutions were diluted to 1000-fold with the extracellular fluid to prepare test solutions (final concentration was 30, 10, 3.3, 1.1, 0.37 μM respectively).
The HEK293 cells that overexpressed the hERG potassium channel were cultured in a 37° C., 5% CO2 incubator, and the culture medium contained DMEM, 15% fetal bovine serum, and 1% penicillin-streptomycin. When the cell density reached 80% of the culture plate, the cells were digested with trypsin/EDTA and transferred to a centrifuge tube, centrifuged at 1000 rpm for 3 minutes, then supernatant was discarded, and the cell culture medium was added. The cells were mixed uniformly by gently blowing and beating. […]
The whole cell recording mode was used to record the channel current in the experiment. Firstly, the extracellular fluid was perfused (approximately 2 mL per minute) and the data were continuous recorded, and the current was kept steady (the current decay was less than 5% in 5 minutes). […] The extracellular fluid containing the test compound was then perfused and the data were continuous recorded until the compound's inhibitory effect on the hERG current reached a steady state, at this time point the peak value of tail current was the current value after dosing. […]

T1 sequence (Q12809 whole entry): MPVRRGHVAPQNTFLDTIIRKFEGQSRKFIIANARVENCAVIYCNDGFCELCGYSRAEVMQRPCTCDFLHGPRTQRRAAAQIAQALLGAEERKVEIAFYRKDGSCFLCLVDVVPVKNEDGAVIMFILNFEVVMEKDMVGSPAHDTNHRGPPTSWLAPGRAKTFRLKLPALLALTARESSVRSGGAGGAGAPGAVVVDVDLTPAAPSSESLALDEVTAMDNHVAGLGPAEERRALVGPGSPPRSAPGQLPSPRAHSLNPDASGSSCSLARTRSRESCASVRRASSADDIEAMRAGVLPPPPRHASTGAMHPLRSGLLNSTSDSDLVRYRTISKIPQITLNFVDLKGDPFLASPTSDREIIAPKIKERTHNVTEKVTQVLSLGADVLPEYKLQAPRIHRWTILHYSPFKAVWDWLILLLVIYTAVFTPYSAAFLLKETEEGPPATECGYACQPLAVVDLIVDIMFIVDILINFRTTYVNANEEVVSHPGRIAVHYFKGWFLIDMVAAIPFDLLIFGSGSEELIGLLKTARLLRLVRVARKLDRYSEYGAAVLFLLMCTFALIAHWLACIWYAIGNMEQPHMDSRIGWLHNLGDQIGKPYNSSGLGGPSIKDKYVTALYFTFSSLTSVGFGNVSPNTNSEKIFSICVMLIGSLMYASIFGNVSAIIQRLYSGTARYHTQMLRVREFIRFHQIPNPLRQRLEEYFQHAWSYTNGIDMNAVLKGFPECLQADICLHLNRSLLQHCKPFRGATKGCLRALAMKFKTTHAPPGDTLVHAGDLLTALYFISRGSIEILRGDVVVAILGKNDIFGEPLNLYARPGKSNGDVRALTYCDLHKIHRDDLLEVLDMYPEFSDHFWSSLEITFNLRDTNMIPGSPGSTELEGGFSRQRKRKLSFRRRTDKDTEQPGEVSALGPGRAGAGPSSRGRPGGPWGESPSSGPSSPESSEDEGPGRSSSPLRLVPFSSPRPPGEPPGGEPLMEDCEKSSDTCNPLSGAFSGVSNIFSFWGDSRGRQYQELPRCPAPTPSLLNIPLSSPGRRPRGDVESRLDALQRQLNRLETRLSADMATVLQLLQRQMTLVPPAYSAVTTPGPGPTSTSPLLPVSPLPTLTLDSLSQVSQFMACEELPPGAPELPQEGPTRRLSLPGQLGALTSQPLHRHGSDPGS

## COC(=O)Nc1c(N)nc(-c2nn(Cc3ccccc3F)c3c(F)cccc23)nc1N [Example 10, methyl (4,6-diamino-2-(7-fluoro-1-(2-fluorobenzyl)-1H-indazol-3-yl)pyrimidin-5-yl)carbamate]
  IC50: 19.9 µM
